Patent US6916604B2, “Uses of synthetic peptides corresponding to telopeptide sequences of cross-linked type I collagen metabolites” (Washington Research Foundation, priority 1987, dated 2005)
No end group written: not given here.

System: MAb-1H11
Test: ELISA of peptides competing against plated-out P1, or plated out as BSA conjugates, for MAb-1H11 binding
Set-up: species or system mouse
Details: for recognition of free cross-linking amino acids by MAb-1H11: made by acid hydrolysis from bone collagen or as present naturally in urine; for recognition by MAb-1H11: ELISA, free peptides competing against plated-out P1, or conjugated to BSA and plated out; for competitive binding with MAb-1H11 (FIG. 9): absorbance at 450 nm of detectable marker bound to plated-out P1 vs concentration of free peptide

recognition of free cross-linking amino acids by MAb-1H11 | recognition by MAb-1H11 | Molecule | competitive binding with MAb-1H11 (FIG. 9)
not recognized | – | NC(CCc1c[n+](CC(O)CCC(N)C(=O)O)cc(O)c1CC(N)C(=O)O)C(=O)O (stereo not drawn) [HP, hydroxylysyl pyridinoline, reference compound] | –
not recognized | – | NC(CCCC[n+]1cc(O)c(CC(N)C(=O)O)c(CCC(N)C(=O)O)c1)C(=O)O (stereo not drawn) [LP, lysyl pyridinoline, reference compound] | –
– | not recognized | QYDGKGVGC [SEQ ID NO:1] | little if any significant competitive binding
– | not recognized | YDEKSTGGC [SEQ ID NO:2] | little if any significant competitive binding
